Test results from PubChem BioAssay AID330 (DTP/NCI, 2004).
Where “and” joins values, the source holds several entries; their conditions need not be identical. Equal entries are not always repeated. Inconclusive results and toxic doses are left out. Square brackets hold non-standard residues; d marks the D form. Peptide text beside a SMILES is read from it. * marks the point of attachment. ξ: configuration not given here. Ac5c = NC1(C(=O)O)CCCC1; Cbz = O=C(OCc1ccccc1)*; ξNle = CCCCC(N)C(=O)O; Sar = CNCC(=O)O

System: P388 leukemia ip, CD2F1 mice, survival T/C
Assay: NCI In Vivo Anticancer Drug Screen. Data for tumor model P388 Leukemia (intraperitoneal) in CD2F1 (CDF1) mice
Conditions: endpoint: median survival time, higher = longer survival
Method in brief: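 Mice carrying the transplanted tumor received test compound or vehicle. Survival was recorded in each group, and the value is the treated-group measurement divided by that of the vehicle-treated control group.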

[1] = dose: 60.0 mg/kg/injection, schedule: Q01DX005 (ip), vehicle: Klucel (hydroxypropylcellulose) (HPC)
[2] = dose: 120.0 mg/kg/injection, schedule: Q01DX005 (ip), vehicle: Klucel (hydroxypropylcellulose) (HPC)
[3] = dose: 240.0 mg/kg/injection, schedule: Q01DX005 (ip), vehicle: Klucel (hydroxypropylcellulose) (HPC)
[4] = dose: 50.0 mg/kg/injection, schedule: Q01DX009 (ip), vehicle: saline with Tween-80
[5] = dose: 100.0 mg/kg/injection, schedule: Q01DX009 (ip), vehicle: saline with Tween-80
[6] = dose: 50.0 mg/kg/injection, schedule: Q01DX005 (ip), vehicle: Klucel (hydroxypropylcellulose) (HPC)
[7] = dose: 100.0 mg/kg/injection, schedule: Q01DX005 (ip), vehicle: Klucel (hydroxypropylcellulose) (HPC)
[8] = dose: 200.0 mg/kg/injection, schedule: Q01DX005 (ip), vehicle: Klucel (hydroxypropylcellulose) (HPC)
[9] = dose: 50.0 mg/kg/injection, schedule: Q01DX009 (ip), vehicle: saline
[10] = dose: 100.0 mg/kg/injection, schedule: Q01DX009 (ip), vehicle: saline
[11] = dose: 200.0 mg/kg/injection, schedule: Q01DX009 (ip), vehicle: saline
[12] = dose: 25.0 mg/kg/injection, schedule: Q01DX005 (ip), vehicle: Klucel (hydroxypropylcellulose) (HPC)
[13] = dose: 60.0 mg/kg/injection, schedule: Q01DX005 (ip), vehicle: saline with Tween-80
[14] = dose: 120.0 mg/kg/injection, schedule: Q01DX005 (ip), vehicle: saline with Tween-80
[15] = dose: 240.0 mg/kg/injection, schedule: Q01DX005 (ip), vehicle: saline with Tween-80

In the case of CCCCC(NC(=O)CNC(=O)CN)C(=O)O (stereo not drawn) (H-Gly-Gly-[ξNle]-OH), the T/C (dose: 50.0 mg/kg/injection, schedule: Q01DX005 (ip), vehicle: saline with Tween-80) is reported as 94 % of control, the T/C (dose: 100.0 mg/kg/injection, schedule: Q01DX005 (ip), vehicle: saline with Tween-80) is reported as 94 % of control and the T/C (dose: 200.0 mg/kg/injection, schedule: Q01DX005 (ip), vehicle: saline with Tween-80) is reported as 93 % of control.
With O/N=C/C(=Nc1ccc(-c2ccc(N=C(/C=N/O)NO)cc2)cc1)NO the T/C [1] was 103 % of control, the T/C [2] was 102 % of control and the T/C [3] was 97 % of control.
With CC(C)(C)P(O)(=S)c1ccccc1 (stereo unspecified) (tested in a mixture with another compound) the T/C (dose: 100.0 mg/kg/injection, schedule: Q04DX003 (ip), vehicle: Klucel (hydroxypropylcellulose) (HPC)) was 102 % of control, the T/C (dose: 200.0 mg/kg/injection, schedule: Q04DX003 (ip), vehicle: Klucel (hydroxypropylcellulose) (HPC)) was 102 % of control and the T/C (dose: 400.0 mg/kg/injection, schedule: Q04DX003 (ip), vehicle: Klucel (hydroxypropylcellulose) (HPC)) was 100 % of control.
For CCCCn1c2nc(=O)[nH]c(=O)c-2cc2ccccc21, the T/C (dose: 25.0 mg/kg/injection, schedule: Q01DX009 (ip), vehicle: saline with Tween-80) was 98 % of control, the T/C [4] was 94 % of control and the T/C [5] was 91 % of control.
COc1cc2c(cc1OC)C(c1ccccc1)ON(C)CC2 (stereo unspecified) was tested, and the T/C [6] was 100 % of control, the T/C [7] was 99 % of control and the T/C [8] was 104 % of control.
In the case of CNCC(=O)NC1(C(=O)O)CCCC1 (H-[Sar]-[Ac5c]-OH), the T/C [9] is reported as 100 % of control, the T/C [10] is reported as 94 % of control and the T/C [11] is reported as 109 % of control.
In the case of CC(=O)C1CC2CN(C(=O)OCC(Cl)(Cl)Cl)C1C=C2c1ccccc1 (stereo unspecified), the T/C (dose: 100.0 mg/kg/injection, schedule: Q04DX002 (ip), vehicle: saline) is reported as 91 % of control, the T/C (dose: 200.0 mg/kg/injection, schedule: Q04DX002 (ip), vehicle: saline) is reported as 94 % of control and the T/C (dose: 400.0 mg/kg/injection, schedule: Q04DX002 (ip), vehicle: saline) is reported as 94 % of control.
With CN(C)N1C(=O)SCC(c2ccccc2)(c2ccccc2)C1=O the T/C [1] was 97 % of control, the T/C [2] was 96 % of control and the T/C [3] was 86 % of control.
In the case of CCCCNc1ccc(C(=O)OC2CCN(C)CC2)c(Cl)c1, the T/C (dose: 0.79 mg/kg/injection, schedule: Q01DX009 (ip), vehicle: saline with Tween-80) is reported as 111 % of control and 119 % of control and 97 % of control, the T/C (dose: 1.56 mg/kg/injection, schedule: Q01DX009 (ip), vehicle: saline with Tween-80) is reported as 106 % of control and 119 % of control and the T/C (dose: 12.5 mg/kg/injection, schedule: Q01DX009 (ip), vehicle: saline with Tween-80) is reported as 107 % of control.
O=C(OCc1ccccc1)C(Cc1c[nH]c2ccccc12)n1cnc2ccccc2c1=O (stereo unspecified) was tested, and the T/C (dose: 12.5 mg/kg/injection, schedule: Q01DX005 (ip), vehicle: Klucel (hydroxypropylcellulose) (HPC)) was 97 % of control, the T/C [12] was 97 % of control and the T/C [6] was 96 % of control.
With CC(=O)Nc1ccc(S(=O)(=O)Oc2noc3ccc(Cl)cc23)cc1 the T/C (dose: 100.0 mg/kg/injection, schedule: Q04DX002 (ip), vehicle: Klucel (hydroxypropylcellulose) (HPC)) was 98 % of control, the T/C (dose: 200.0 mg/kg/injection, schedule: Q04DX002 (ip), vehicle: Klucel (hydroxypropylcellulose) (HPC)) was 98 % of control and the T/C (dose: 400.0 mg/kg/injection, schedule: Q04DX002 (ip), vehicle: Klucel (hydroxypropylcellulose) (HPC)) was 93 % of control.
CC(C)C(NC(=O)C(Cc1ccc(O)cc1)NC(=O)OCc1ccccc1)C(=O)O (stereo not drawn) (Cbz-Tyr-Val-OH; configuration not given here) was tested, and the T/C [6] was 103 % of control, the T/C [7] was 100 % of control and the T/C [8] was 100 % of control.
Cc1ccc(O)c(N=Nc2c(O)cc(S(=O)(=O)O)c3ccccc23)c1 was tested, and the T/C (dose: 50.0 mg/kg/injection, schedule: Q01DX009 (ip), vehicle: suspension in saline) was 100 % of control and the T/C (dose: 100.0 mg/kg/injection, schedule: Q01DX009 (ip), vehicle: suspension in saline) was 95 % of control.
With Cc1nc2cc(N(C)C)ccc2c(Cl)c1C(N)=O the T/C (dose: 15.0 mg/kg/injection, schedule: Q01DX005 (ip), vehicle: Klucel (hydroxypropylcellulose) (HPC)) was 100 % of control, the T/C (dose: 30.0 mg/kg/injection, schedule: Q01DX005 (ip), vehicle: Klucel (hydroxypropylcellulose) (HPC)) was 99 % of control and the T/C [1] was 100 % of control and 96 % of control.
CC(=O)c1cc2c(cc1O)OC(C)(C)C=C2 was tested, and the T/C [12] was 101 % of control, the T/C [6] was 99 % of control and the T/C [7] was 91 % of control. For the same molecule, the T/C [8] was 92 % of control.
In the case of CC1(O)COC1(c1ccccc1)c1ccccc1 (stereo unspecified), the T/C [13] is reported as 93 % of control, the T/C [14] is reported as 96 % of control and the T/C [15] is reported as 93 % of control.
For CCOCCOC(=O)Nc1c(Cl)cccc1Cl, the T/C [13] was 101 % of control, the T/C [14] was 96 % of control and the T/C [15] was 95 % of control.
In the case of C(NC=C1c2ccccc2-c2ccccc21)=C1c2ccccc2-c2ccccc21, the T/C [6] is reported as 100 % of control, the T/C [7] is reported as 92 % of control and the T/C [8] is reported as 94 % of control.
With COC(=O)C(Cc1ccc(O)cc1)NS(=O)(=O)Cc1ccccc1 (stereo unspecified) the T/C [4] was 107 % of control, the T/C [5] was 96 % of control and the T/C (dose: 200.0 mg/kg/injection, schedule: Q01DX009 (ip), vehicle: saline with Tween-80) was 99 % of control.
With CC(=O)Oc1ccc[nH]c1=S the T/C (dose: 12.5 mg/kg/injection, schedule: Q01DX009 (ip), vehicle: saline) was 101 % of control and 103 % of control, the T/C (dose: 25.0 mg/kg/injection, schedule: Q01DX009 (ip), vehicle: saline) was 104 % of control and 106 % of control and the T/C [9] was 99 % of control and 102 % of control. For the same molecule, the T/C (dose: 100.0 mg/kg/injection, schedule: Q01DX008 (ip), vehicle: saline) was 104 % of control and 106 % of control, the T/C [10] was 100 % of control and 104 % of control and the T/C (dose: 200.0 mg/kg/injection, schedule: Q01DX008 (ip), vehicle: saline) was 105 % of control and 110 % of control. The T/C [11] was 109 % of control and 113 % of control, the T/C (dose: 400.0 mg/kg/injection, schedule: Q01DX008 (ip), vehicle: saline) was 120 % of control and the T/C (dose: 400.0 mg/kg/injection, schedule: Q01DX009 (ip), vehicle: saline) was 96 % of control.
CNC(=S)/N=c1/sc([N+](=O)[O-])c(C)n1C was tested, and the T/C (dose: 1.87 mg/kg/injection, schedule: Q01DX005 (ip), vehicle: saline with Tween-80) was 94 % of control, the T/C (dose: 3.75 mg/kg/injection, schedule: Q01DX005 (ip), vehicle: saline with Tween-80) was 92 % of control and the T/C (dose: 7.5 mg/kg/injection, schedule: Q01DX005 (ip), vehicle: saline with Tween-80) was 99 % of control and 97 % of control. The T/C (dose: 15.0 mg/kg/injection, schedule: Q01DX005 (ip), vehicle: saline with Tween-80) was 95 % of control.
O=Cc1cc(O)ccc1O was tested, and the T/C [10] was 103 % of control and 114 % of control.
In the case of Cn1[nH]c2[nH]c(=S)sc(=S)c2c1=O, the T/C [12] is reported as 109 % of control, the T/C [6] is reported as 109 % of control and the T/C [7] is reported as 98 % of control. For the same molecule, the T/C [8] was 104 % of control.
COc1ccc(CC2C(=O)NC(C)C(=O)N(C)C3C(=O)N(C)C(Cc4ccc(O)c(c4)Oc4ccc(cc4)C3O)C(=O)NC(C)C(=O)NC(C)C(=O)N2C)cc1 (stereo unspecified) (tested in a mixture with another compound) was tested, and the T/C (dose: 1.0 mg/kg/injection, schedule: Q01DX009 (ip), vehicle: Klucel (hydroxypropylcellulose) (HPC)) was 158 % of control, the T/C (dose: 2.0 mg/kg/injection, schedule: Q01DX009 (ip), vehicle: Klucel (hydroxypropylcellulose) (HPC)) was 158 % of control and the T/C (dose: 4.0 mg/kg/injection, schedule: Q01DX009 (ip), vehicle: Klucel (hydroxypropylcellulose) (HPC)) was 155 % of control. The T/C (dose: 250.0 micrograms/kg/injection, schedule: Q01DX009 (ip), vehicle: saline) was 156 % of control, the T/C (dose: 500.0 micrograms/kg/injection, schedule: Q01DX009 (ip), vehicle: saline) was 152 % of control and the T/C (dose: 1000.0 micrograms/kg/injection, schedule: Q01DX009 (ip), vehicle: saline) was 158 % of control.
In the case of C/C(=N\NC(=S)Nc1ccc(S(=O)(=O)O)cc1)c1ccccn1, the T/C [6] is reported as 107 % of control, the T/C (dose: 50.0 mg/kg/injection, schedule: Q01DX005 (ip), vehicle: suspension in saline) is reported as 101 % of control and the T/C [7] is reported as 108 % of control. The T/C (dose: 100.0 mg/kg/injection, schedule: Q01DX005 (ip), vehicle: suspension in saline) was 105 % of control, the T/C [8] was 106 % of control and the T/C (dose: 200.0 mg/kg/injection, schedule: Q01DX005 (ip), vehicle: suspension in saline) was 121 % of control. For the same molecule, the T/C (dose: 400.0 mg/kg/injection, schedule: Q01DX005 (ip), vehicle: Klucel (hydroxypropylcellulose) (HPC)) was 115 % of control.
In the case of Cc1nc2[nH]ncc2c(=O)n1N, the T/C (dose: 50.0 mg/kg/injection, schedule: Q01DX005 (ip), vehicle: saline) is reported as 97 % of control, the T/C (dose: 100.0 mg/kg/injection, schedule: Q01DX005 (ip), vehicle: saline) is reported as 108 % of control and the T/C (dose: 200.0 mg/kg/injection, schedule: Q01DX005 (ip), vehicle: saline) is reported as 101 % of control.
